In patent US10316032B2, “Solid forms of a compound for modulating kinases” (Plexxikon Inc., priority 2015, dated 2019):
Converted amounts (≈) assume the structure as drawn. Values belong to the compound of their own block, whether it stands above or below them.

What was measured:
[1] = Interconversion (competitive slurry) experiments Form B / Form H; type: physicochemical; details: various solvent systems, between ambient temperature and approximately 75° C.
Description: Solutions of Compound I were prepared by adding sufficient solids to a given solvent or solvent system at ambient conditions such that undissolved solids were present. The mixture was then agitated in a closed vial at ambient or elevated temperature for an extended period of time. Solids were collected by vacuum filtration and analyzed.

[2] = Solubility estimates at ambient temperature (solvent aliquot addition, visual); type: physicochemical; details: thermodynamic from solid
Description: Aliquots of various solvents were added to measured amounts of Compound I with agitation (typically sonication) at ambient temperature until complete dissolution was achieved, as judged by visual observation. Solubilities were calculated based on the total solvent used to give a solution; actual solubilities may be greater because of the volume of solvent portions utilized or a slow rate of dissolution. […] If dissolution occurred at the first aliquot the value was reported as “>”.

B-Raf V600E kinase = B-Raf V600E kinase (Homo sapiens, UniProt P15056, V600E); experiment: B-Raf V600E kinase inhibition
Sequence of B-Raf V600E kinase (P15056 whole entry V600E): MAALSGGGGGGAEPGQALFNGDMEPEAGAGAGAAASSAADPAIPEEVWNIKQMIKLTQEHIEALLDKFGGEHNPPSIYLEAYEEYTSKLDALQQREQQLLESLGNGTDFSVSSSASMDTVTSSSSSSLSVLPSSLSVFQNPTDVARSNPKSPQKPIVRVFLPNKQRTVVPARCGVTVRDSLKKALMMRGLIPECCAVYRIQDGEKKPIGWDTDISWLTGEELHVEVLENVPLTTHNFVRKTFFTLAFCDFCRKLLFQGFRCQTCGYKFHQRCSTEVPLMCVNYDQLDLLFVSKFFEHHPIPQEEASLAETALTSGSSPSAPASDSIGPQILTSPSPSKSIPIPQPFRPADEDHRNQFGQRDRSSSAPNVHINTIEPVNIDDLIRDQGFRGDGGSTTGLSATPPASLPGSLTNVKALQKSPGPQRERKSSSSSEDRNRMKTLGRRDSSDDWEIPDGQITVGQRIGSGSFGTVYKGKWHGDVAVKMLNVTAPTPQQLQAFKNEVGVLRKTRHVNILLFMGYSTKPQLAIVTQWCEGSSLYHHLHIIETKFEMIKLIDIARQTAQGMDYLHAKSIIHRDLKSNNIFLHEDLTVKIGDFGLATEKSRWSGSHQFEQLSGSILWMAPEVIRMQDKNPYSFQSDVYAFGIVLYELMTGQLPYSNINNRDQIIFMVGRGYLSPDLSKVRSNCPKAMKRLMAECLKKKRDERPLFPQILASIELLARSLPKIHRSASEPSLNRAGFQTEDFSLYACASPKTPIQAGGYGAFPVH

relative stability of solid forms (competitive slurry) ([1]; listed as Form B): less stable than Form H
solubility ([2]; aqueous with cosolvent or surfactant or cyclodextrin, EtOH/Water (75/25 vol/vol)): ~5000 µg/mL (≈ 9.22 mM)
solubility ([2]; organic solvent or mixture, ACN): ~5000 µg/mL (≈ 9.22 mM)
solubility ([2]; organic solvent or mixture, Acetone): ~36000 µg/mL (≈ 66.4 mM)
solubility ([2]; organic solvent or mixture, DCM): < 1000 µg/mL
solubility ([2]; organic solvent or mixture, DMF): > 97000 µg/mL
solubility ([2]; organic solvent or mixture, DMSO): > 84000 µg/mL
solubility ([2]; organic solvent or mixture, Dioxane): > 103000 µg/mL
solubility ([2]; organic solvent or mixture, EtOAc): ~5000 µg/mL (≈ 9.22 mM)
solubility ([2]; organic solvent or mixture, EtOH): ~1000 µg/mL (≈ 1.84 mM)
solubility ([2]; organic solvent or mixture, Heptane): < 1000 µg/mL
solubility ([2]; organic solvent or mixture, IPA): < 1000 µg/mL
solubility ([2]; organic solvent or mixture, MTBE): < 2000 µg/mL
solubility ([2]; organic solvent or mixture, MeOH): ~4000 µg/mL (≈ 7.37 mM)
solubility ([2]; organic solvent or mixture, THF): > 102000 µg/mL
solubility ([2]; organic solvent or mixture, t-BuOH): < 2000 µg/mL
solubility ([2]; Water): < 1000 µg/mL
SMILES: O=C(c1c(F)ccc(NS(=O)(=O)N2CC[C@@H](F)C2)c1F)c1c[nH]c2ncc(-c3cnc(C4CC4)nc3)cc12 [Compound I Form B, (3R)—N-(3-(5-(2-cyclopropylpyrimidin-5-yl)-1H-pyrrolo[2,3-b]pyridine-3-carbonyl)-2,4-difluorophenyl)-3-fluoropyrrolidine-1-sulfonamide]

relative stability of solid forms (competitive slurry) ([1]; listed as Form H): more stable than Form B
SMILES: O=C(c1c(F)ccc(NS(=O)(=O)N2CC[C@@H](F)C2)c1F)c1c[nH]c2ncc(-c3cnc(C4CC4)nc3)cc12 [Compound I Form H, (3R)—N-(3-(5-(2-cyclopropylpyrimidin-5-yl)-1H-pyrrolo[2,3-b]pyridine-3-carbonyl)-2,4-difluorophenyl)-3-fluoropyrrolidine-1-sulfonamide]

IC50 (B-Raf V600E kinase): < 100 nM
SMILES: O=C(c1c(F)ccc(NS(=O)(=O)N2CC[C@@H](F)C2)c1F)c1c[nH]c2ncc(-c3cnc(C4CC4)nc3)cc12 [Compound I, (3R)—N-(3-(5-(2-cyclopropylpyrimidin-5-yl)-1H-pyrrolo[2,3-b]pyridine-3-carbonyl)-2,4-difluorophenyl)-3-fluoropyrrolidine-1-sulfonamide]
